{"source": "ChEMBL document CHEMBL4308908", "about": "“Lamellarin-inspired potent topoisomerase I inhibitors with the unprecedented benzo[g][1]benzopyrano[4,3-b]indol-6(13H)-one scaffold” (Bioorg Med Chem, 2019)", "key": {"[1]": {"target": "T1, DNA topoisomerase I (Bos taurus) (UniProt F1MN93)", "T1 sequence (whole entry)": "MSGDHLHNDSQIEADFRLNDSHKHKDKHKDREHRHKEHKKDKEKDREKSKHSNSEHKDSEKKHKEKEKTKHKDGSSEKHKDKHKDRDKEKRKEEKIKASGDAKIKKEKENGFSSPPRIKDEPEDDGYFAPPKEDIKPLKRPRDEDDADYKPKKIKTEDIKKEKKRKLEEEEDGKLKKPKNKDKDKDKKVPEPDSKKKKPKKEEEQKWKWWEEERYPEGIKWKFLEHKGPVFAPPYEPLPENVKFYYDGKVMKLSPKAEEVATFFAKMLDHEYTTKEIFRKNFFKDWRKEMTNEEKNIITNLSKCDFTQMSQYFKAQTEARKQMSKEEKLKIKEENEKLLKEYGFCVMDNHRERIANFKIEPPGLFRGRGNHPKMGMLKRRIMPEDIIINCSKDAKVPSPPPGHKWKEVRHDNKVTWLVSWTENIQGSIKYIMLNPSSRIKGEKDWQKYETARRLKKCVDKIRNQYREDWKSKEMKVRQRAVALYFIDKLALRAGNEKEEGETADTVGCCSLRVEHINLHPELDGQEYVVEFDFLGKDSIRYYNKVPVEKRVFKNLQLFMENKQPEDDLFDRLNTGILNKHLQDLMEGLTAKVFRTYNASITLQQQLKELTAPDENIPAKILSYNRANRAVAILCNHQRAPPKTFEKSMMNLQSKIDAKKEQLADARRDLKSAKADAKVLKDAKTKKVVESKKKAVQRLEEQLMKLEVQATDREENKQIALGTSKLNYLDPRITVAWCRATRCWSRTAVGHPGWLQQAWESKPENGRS", "test": "Inhibition of calf thymus DNA topoisomerase 1 assessed as reduction in enzyme-mediated relaxation of supercoiled pBR322 plasmid DNA at 10 uM after 30 mins by agarose gel electrophoresis"}, "[2]": {"test": "Antiproliferative activity against human BSY1 cells after 48 hrs by SRB assay", "assay_type": "functional", "details": "BSY-1, 48 h"}, "MDA-MB-231": {"test_system": "MDA-MB-231", "test": "Antiproliferative activity against human MDA-MB-231 cells after 48 hrs by SRB assay", "assay_type": "functional", "details": "MDA-MB-231, 48 h"}, "SF-268": {"test_system": "SF-268", "test": "Antiproliferative activity against human SF268 cells after 48 hrs by SRB assay", "assay_type": "functional", "details": "SF-268, 48 h"}, "SNB-78": {"test_system": "SNB-78", "test": "Antiproliferative activity against human SNB78 cells after 48 hrs by SRB assay", "assay_type": "functional", "details": "SNB-78, 48 h"}, "HCT-15": {"test_system": "HCT-15", "test": "Antiproliferative activity against human HCT15 cells after 48 hrs by SRB assay", "assay_type": "functional", "details": "HCT-15, 48 h"}, "NCI-H522": {"test_system": "NCI-H522", "test": "Antiproliferative activity against human NCI-H522 cells after 48 hrs by SRB assay", "assay_type": "functional", "details": "NCI-H522, 48 h"}, "A549": {"test_system": "A549", "test": "Antiproliferative activity against human A549 cells after 48 hrs by SRB assay", "assay_type": "functional", "details": "A549, 48 h"}, "OVCAR-3": {"test_system": "OVCAR-3", "test": "Antiproliferative activity against human OVCAR3 cells after 48 hrs by SRB assay", "assay_type": "functional", "details": "OVCAR-3, 48 h"}}, "note": "Active and inactive are the calls of the source. No cut-off for these calls is given here."}
{"smiles": "COc1cc2c(ccc3c4c(=O)oc5cc(OC(=O)[C@@H](N)C(C)C)c(OC)cc5c4n(C)c23)cc1OC(=O)[C@@H](N)C(C)C.O=C(O)C(F)(F)F.O=C(O)C(F)(F)F", "values": [{"measurement": "inhibition", "setting": "[1]", "value": "Active"}, {"measurement": "GI50", "setting": "[2]", "value": 38, "unit": "nM"}, {"measurement": "GI50", "setting": "MDA-MB-231", "value": 148, "unit": "nM"}, {"measurement": "GI50", "setting": "SF-268", "value": 8.32, "unit": "nM"}, {"measurement": "GI50", "setting": "SNB-78", "value": 282, "unit": "nM"}, {"measurement": "GI50", "setting": "HCT-15", "value": 58.9, "unit": "nM"}, {"measurement": "GI50", "setting": "NCI-H522; read-out: GI50", "value": 3.4, "unit": "nM"}, {"measurement": "GI50", "setting": "NCI-H522; read-out: pGI50 (converted)", "value": 3.47, "unit": "nM"}, {"measurement": "GI50", "setting": "A549", "value": 52.5, "unit": "nM"}, {"measurement": "GI50", "setting": "OVCAR-3", "value": 56.2, "unit": "nM"}]}
